Four molecules from patent publication US20230406849A1, “KRAS INHIBITORS FOR TREATMENT OF CANCERS” (TYLIGAND BIOSCIENCE (SHANGHAI) LIMITED, priority 2020, published 2023) can be followed below.

Like-named read-outs stand apart in the source and are kept apart here.

Assay in all cases: CYP inhibition in human liver microsomes
What all share (format): in vitro ADME

The target in one series is T1, CYP2C19 (Homo sapiens, UniProt P33261).
T1 construct: Human liver microsomes (Corning, Cat #452161); tissue Corning 452161; host or cells: human liver microsomes
T1 sequence (P33261 whole entry): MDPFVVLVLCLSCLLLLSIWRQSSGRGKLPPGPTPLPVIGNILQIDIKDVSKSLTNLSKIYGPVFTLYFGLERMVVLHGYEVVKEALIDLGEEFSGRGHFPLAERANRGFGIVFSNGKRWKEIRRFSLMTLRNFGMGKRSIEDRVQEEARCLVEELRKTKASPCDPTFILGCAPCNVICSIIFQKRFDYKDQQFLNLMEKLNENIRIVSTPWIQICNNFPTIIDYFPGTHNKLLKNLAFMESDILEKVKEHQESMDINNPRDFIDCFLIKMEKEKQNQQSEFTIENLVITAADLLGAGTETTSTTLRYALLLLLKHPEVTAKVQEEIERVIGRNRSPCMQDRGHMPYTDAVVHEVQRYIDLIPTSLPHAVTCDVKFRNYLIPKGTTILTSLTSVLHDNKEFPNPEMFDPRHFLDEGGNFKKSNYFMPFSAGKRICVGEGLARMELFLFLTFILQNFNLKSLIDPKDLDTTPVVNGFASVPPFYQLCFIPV
Conditions: pH 7.4, read-out: CYP inhibition rate (%) 2C19. The source says:
(§1) The inhibitory effect of the compounds of the present disclosure on the cytochrome P450 enzyme system was investigated in this assay.
(§2) [Test materials]: Human liver microsomes (Corning, Cat #452161); Reduced nicotinamide adenine dinucleotide phosphate (NADPH, MCE, Cat #HY-F0003/CS-4998); Phenacetin, Diclofenac, α-naphthoflavone, Omeprazole and Ketoconazole were purchased from TCI; S-Mephenytoin and testosterone were purchased from CAYMAN; Midazolam was purchased from Bioreclamation IVT; Quinidine was purchased from Damas-beta; Sulfaphenazole was purchased from MCE; Bufuralol was purchased from TRC.
(§3) [Experimental procedure]: Preparation of 0.1M potassium phosphate buffer (K-buffer): 100 mM potassium phosphate buffer (K-buffer) was prepared with potassium dihydrogen phosphate and dipotassium hydrogen phosphate, and adjusted to pH 7.4.
(§4) Preparation of 400× test compound and reference inhibitor solutions: 8 μL of 10 mM stock solution of the test compounds was mixed with 12 μL of acetonitrile. Preparation of inhibitor cocktail solution for CYP1A2, CYP2C9 and CYP2D6: […] of 1 mM α-naphthoflavone, 10 µL of 40 mM Sulfaphenazole, 10 μL of 10 mM Quinidine and 8 μL DMSO were mixed. Preparation of inhibitor cocktail solution for CYP3A4 and CYP2C19: 8 μL of DMSO solution was mixed with 12 μL of acetonitrile.
(§5) Preparation of 4×NADPH potassium phosphate solution: 66.7 mg of NADPH was added to 10 mL of K-buffer pH7.4. Preparation of 4× substrate potassium phosphate solution: the different substrates were prepared to 4-fold concentration test solutions with 10 mL 0.1M K-buffer according to the concentration requirements.
(§6) Preparation of 0.2 mg/mL human liver microsomes (HLM) solution: […] of 20 mg/mL human liver microsomes was added to […] K-buffer, and the solution was stored in ice bath until use.
(§7) 600 μL of 0.2 mg/mL HLM was added to a 96-well plate, followed by the addition of 3 μL of a 400-fold test compound solution; 200 μL of 0.2 mg/mL HLM was added to a 96-well plate, and 1 μL of the diluted positive control inhibitor solution was added. 30 μL of the compound solution mixed with human liver microsomes was added into a 96-well plate, and 15 μL of substrate solution was added then. The solutions obtained above, and the prepared NADPH solution were pre-incubated at 37° C. for 5 min. 15 μL of the pre-warmed NADPH solution was added to the reaction plate, mixed well, to initiate the reaction. The reaction plate was incubated at 37° C., for 5 minutes (3A4), for 10 minutes (1A2, 2C9, 2D6), for 45 minutes (2C19). At the end of the reaction, 120 μL of acetonitrile containing internal standard was added to quenched the reaction. Samples were vortexed for 10 min, centrifuged at 5594 g for 15 min, and prepared for LC-MS/MS analysis.

The target in the next series is T2, CYP2C9 (Homo sapiens, UniProt P11712).
T2 construct: Human liver microsomes (Corning, Cat #452161); tissue Corning 452161; host or cells: human liver microsomes
T2 sequence (P11712 whole entry): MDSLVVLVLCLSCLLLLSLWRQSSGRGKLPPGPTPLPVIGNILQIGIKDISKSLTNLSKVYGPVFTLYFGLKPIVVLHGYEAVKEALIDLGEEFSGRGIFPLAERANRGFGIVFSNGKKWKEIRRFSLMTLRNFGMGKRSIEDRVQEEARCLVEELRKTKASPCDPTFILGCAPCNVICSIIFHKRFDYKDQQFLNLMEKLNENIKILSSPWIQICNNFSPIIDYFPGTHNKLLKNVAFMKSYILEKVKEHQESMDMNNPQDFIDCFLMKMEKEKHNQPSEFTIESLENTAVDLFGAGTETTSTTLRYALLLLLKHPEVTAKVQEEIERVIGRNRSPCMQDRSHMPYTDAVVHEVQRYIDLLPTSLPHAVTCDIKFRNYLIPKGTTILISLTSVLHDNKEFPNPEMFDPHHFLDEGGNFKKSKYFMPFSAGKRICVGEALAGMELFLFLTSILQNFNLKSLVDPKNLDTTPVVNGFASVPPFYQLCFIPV
The note with it: pH 7.4, read-out: CYP inhibition rate (%) 2C9.
Excerpt: as §1, §2, §3, §4, §5, §6, §7

The next series has as its target T3, CYP1A2 (Homo sapiens, UniProt P05177).
T3 construct: Human liver microsomes (Corning, Cat #452161); tissue Corning 452161; host or cells: human liver microsomes
T3 sequence (P05177 1-516): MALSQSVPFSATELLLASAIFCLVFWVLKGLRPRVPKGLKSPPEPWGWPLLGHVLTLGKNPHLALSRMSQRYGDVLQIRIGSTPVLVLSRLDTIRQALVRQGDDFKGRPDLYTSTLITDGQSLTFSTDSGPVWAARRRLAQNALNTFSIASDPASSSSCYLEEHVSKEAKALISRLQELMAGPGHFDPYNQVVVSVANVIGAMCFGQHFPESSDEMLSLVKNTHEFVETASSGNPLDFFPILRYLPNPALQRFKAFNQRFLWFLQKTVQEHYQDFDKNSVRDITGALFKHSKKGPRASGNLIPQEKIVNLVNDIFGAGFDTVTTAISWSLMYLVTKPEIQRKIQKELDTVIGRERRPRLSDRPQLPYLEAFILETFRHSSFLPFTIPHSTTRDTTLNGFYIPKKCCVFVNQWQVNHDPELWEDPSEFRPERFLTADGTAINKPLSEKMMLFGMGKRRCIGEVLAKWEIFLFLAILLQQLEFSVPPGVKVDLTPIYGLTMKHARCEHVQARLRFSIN
Conditions: pH 7.4, read-out: CYP inhibition rate (%) 1A2.
Excerpt: as §1, §2, §3, §4, §5, §6, §7

Another series addresses T4, CYP2D6 (Homo sapiens, UniProt P10635).
T4 construct: Human liver microsomes (Corning, Cat #452161); tissue Corning 452161; host or cells: human liver microsomes
Conditions: pH 7.4, read-out: CYP inhibition rate (%) 2D6.
Excerpt: as §1, §2, §3, §4, §5, §6, §7

In the next series the target is T5, CYP3A4 (Homo sapiens, UniProt P08684).
T5 construct: Human liver microsomes (Corning, Cat #452161); tissue Corning 452161; host or cells: human liver microsomes
T5 sequence (P08684 whole entry): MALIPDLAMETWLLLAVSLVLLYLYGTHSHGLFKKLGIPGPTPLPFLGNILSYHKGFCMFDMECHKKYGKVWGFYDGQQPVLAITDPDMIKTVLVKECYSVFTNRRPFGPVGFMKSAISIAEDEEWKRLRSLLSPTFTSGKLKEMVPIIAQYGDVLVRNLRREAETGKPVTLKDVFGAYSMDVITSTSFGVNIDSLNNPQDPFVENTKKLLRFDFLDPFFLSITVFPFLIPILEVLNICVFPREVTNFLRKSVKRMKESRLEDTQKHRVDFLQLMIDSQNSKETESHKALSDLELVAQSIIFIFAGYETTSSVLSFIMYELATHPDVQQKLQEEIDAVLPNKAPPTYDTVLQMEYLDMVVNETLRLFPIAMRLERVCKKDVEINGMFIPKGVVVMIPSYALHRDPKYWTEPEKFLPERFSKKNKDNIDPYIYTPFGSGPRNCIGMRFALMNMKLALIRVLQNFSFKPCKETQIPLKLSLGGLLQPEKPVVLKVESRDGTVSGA
Excerpt: as §1, §2, §3, §4, §5, §6, §7

Setting [1] is: pH 7.4, probe midazolam, substrate midazolam, read-out: CYP inhibition rate (%) CYP3A4 (midazolam).
Setting [2] is: pH 7.4, probe testosterone, substrate testosterone, read-out: CYP inhibition rate (%) CYP3A4 (testosterone).

T4 sequence (P10635 whole entry): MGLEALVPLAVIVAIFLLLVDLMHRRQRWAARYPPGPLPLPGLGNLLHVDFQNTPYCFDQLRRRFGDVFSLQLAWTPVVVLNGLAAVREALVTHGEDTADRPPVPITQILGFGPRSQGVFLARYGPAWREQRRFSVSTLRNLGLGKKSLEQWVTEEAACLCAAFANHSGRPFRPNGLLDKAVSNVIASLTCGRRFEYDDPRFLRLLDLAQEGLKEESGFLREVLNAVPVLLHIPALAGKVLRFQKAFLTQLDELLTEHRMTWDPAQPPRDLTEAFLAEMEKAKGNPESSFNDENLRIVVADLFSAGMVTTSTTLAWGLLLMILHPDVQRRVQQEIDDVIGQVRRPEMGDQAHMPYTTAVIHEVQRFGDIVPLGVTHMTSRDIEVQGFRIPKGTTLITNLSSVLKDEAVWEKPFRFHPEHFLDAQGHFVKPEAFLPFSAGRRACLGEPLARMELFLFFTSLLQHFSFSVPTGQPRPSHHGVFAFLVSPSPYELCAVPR

Take `C=CC(=O)N1CCN(c2c(C#N)cnc3c(F)c(-c4ccc(F)c5sc(N)nc45)c(Cl)cc23)CC1` [Example 9, 4-(4-Acryloylpiperazin-1-yl)-7-(2-amino-7-fluorobenzo[d]thiazol-4-yl)-6-chloro-8-fluoroquinoline-3-carbonitrile]: the inhibition (as a rule, the drop in the measured response relative to a control, in per cent) at 45 min, 10 µM at CYP2C19 was determined as 34.9%. For the same molecule, the results for the inhibition at 10 min, 10 µM at CYP2C9, at CYP1A2 and at CYP2D6 were 42.5%, 13.6% and -11.4%, respectively. Moreover, the inhibition at 5 min, 10 µM came out at 24% on CYP3A4 (setting [1]) and 30.9% on CYP3A4 (setting [2]).
For `C=CC(=O)N1CCN(c2ncnc3c(F)c(-c4ccc(F)c5sc(N)nc45)c(Cl)cc23)CC1` [Ref. Comp. A, reference compound], the inhibition at 45 min, 10 µM at CYP2C19 amounted to 74.3%. In addition, the inhibition at 10 min, 10 µM on CYP2C9 is 52.4%; on CYP1A2, 73%; at CYP2D6, 32.6%. Further, the figures for the inhibition at 5 min, 10 µM at CYP3A4 (setting [1]) and at CYP3A4 (setting [2]) were 11.1% and 10.9%, respectively.
As to `C=CC(=O)N1CCN(c2c(C#N)cnc3c(F)c(-c4ccc(F)c5sc(N)nc45)c(Cl)cc23)C[C@H]1C` [Example 8, 4-((R)-4-acryloyl-3-methylpiperazin-1-yl)-7-(2-amino-7-fluorobenzo[d]thiazol-4-yl)-6-chloro-8-fluoroquinoline-3-carbonitrile], at CYP2C19, the inhibition at 45 min, 10 µM was determined as 31.2%. The inhibition at 10 min, 10 µM on CYP2C9 stood at 49.9%; on CYP1A2, 17.6%; at CYP2D6 it was 13.8%. Moreover, the inhibition at 5 min, 10 µM on CYP3A4 (setting [1]) was 22%; at CYP3A4 (setting [2]), 16.9%.
Consider `C=CC(=O)N1CCN(c2nc(=O)n(-c3c(C)ccnc3C(C)C)c3nc(-c4c(O)cccc4F)c(F)cc23)[C@@H](C)C1` (atropisomer, axis not shown) [AMG510, reference compound], for which the inhibition at 45 min, 10 µM on CYP2C19 stood at 11.1%. Besides, the values for the inhibition at 10 min, 10 µM on CYP2C9, at CYP1A2 and at CYP2D6 were 26.2%, 10.3% and 23.7%, respectively. For the same molecule, the figures for the inhibition at 5 min, 10 µM on CYP3A4 (setting [1]) and at CYP3A4 (setting [2]) were 63.7% and 24.8%, respectively.
